# In patent publication US20040162263A1, “Pharmaceutical formulations targeting specific regions of the gastrointesinal tract” (priority 2002, published 2004):
# Assay: Pharmacokinetics of 9-nitro-camptothecin (9NC) in IVAP beagle dog model
# Format: in vivo, beagle dogs
# Experimental: Blood samples were taken systemic and from the portal vein through a sampling/delivery vascular port previously implanted, then plasma was separated by centrifugation and kept frozen at −80° C. until analysis.
# The samples were analyzed in a Perkin Elmer liquid chromatography-tandem mass spectrometer system with a PE LC-200 Micro pump, a PE200 Autosampler and a PE Sciex API 365 mass spectrometry unit.
# Adult male beagle dogs (between the ages of 1 and 5 years and weighed between 9 and 16 kg) were obtained from Summit Ridge Farms, Susquehanna, Pa. The IVAP dogs were prepared by using a protocol similar to the one used for pentostatin experiments described above.
# On the morning of the test, each animal is weighed and placed in the sling. An IV catheter is installed in the brachial vein for systemic blood sampling with a multiuse vacutainer needle adapter. This is flushed with heparinized saline (50 units/ml) to maintain potency between sampling. When necessary, a 20 g or 22 g right-angled Huber infusion set would be placed in the PV port and attached to a three-way stopcock for PV blood sampling.
# The preparation of the dose depends on the route of study. In case of IV and PV administration, the drug was dissolved in dimethylacetamide (DMA) at 5 mg/ml and 0.5 ml of the DMA concentrate filtered through a […] filter into 4.5 ml of diluent (51% PEG-400 49% 0.001 M H3PO4) prior to administration to the brachial or portal vein. In the case of all other infusions, as well as oral administration, the drug was dissolved in vegetable oil to a concentration of 1 mg/ml and drawn up into dosing syringes. Animals were dosed IV at 0.1 and 0.2 mg/kg and 0.2 mg/kg for all the other routes of administration tested.
# In intravascular studies, the dose is administered via a second catheter and the entire volume is delivered within 45 seconds.
# In portal vein studies, the dose is also administered via an additional catheter over a 30 min time period.
# In the case of oral dosages, the dose is delivered to the back of the mouth with an appropriate size syringe and is followed with 5 ml of tap water to assist swallowing and clearance of the dose from the mouth. Capsules were administered similarly by placing them at the back of the mouth and giving around 5 ml of water to facilitate swallowing.
# For all other tests, the dosage is infused into the appropriate intestinal port and flushed with 2-3 ml of sterile saline. The dead space volume of the ports and tubing vary slightly between individuals, but are generally less than 0.5 ml total. […]
# Systemic blood samples allow the calculation of AUC0-inf after oral capsule administration only and portal vein AUC for all the routes of administration.
# [1] = 9-NC 0.2 mg/kg COLON port, 0.17 hr
# [2] = 9-NC 0.2 mg/kg ileum port, 0.17 hr
# [3] = 9-NC 0.2 mg/kg jejunal port, 0.17 hr
# [4] = portal vein samples, 9-NC via COLON port
# [5] = portal vein samples, 9-NC via ILEUM port
# [6] = portal vein samples, 9-NC via JEJUNUM port
# [7] = systemic samples, 9-NC via COLON port
# [8] = systemic samples, 9-NC via ILEUM port
# [9] = systemic samples, 9-NC via JEJUNUM port
compound,measurement,setting,value
"CC[C@@]1(O)C(=O)OCc2c1cc1n(c2=O)Cc2cc3c([N+](=O)[O-])cccc3nc2-1 [9-NC, 9-nitro-20(S)-camptothecin]","Mean plasma concentration, Portal Vein",[1],0.53 ± 0.05 ng/mL
same,"Mean plasma concentration, Systemic",[1],0.117 ng/mL
same,"Mean plasma concentration, Portal Vein",[2],0.44 ± 0.10 ng/mL
same,"Mean plasma concentration, Systemic",[2],0.11 ± 0.01 ng/mL
same,"Mean plasma concentration, Portal Vein",[3],0.54 ± 0.22 ng/mL
same,"Mean plasma concentration, Systemic",[3],BQL
same,"Mean plasma concentration, Portal Vein","COLON port, 0.5 hr",0.37 ± 0.12 ng/mL
same,"Mean plasma concentration, Systemic","COLON port, 0.5 hr",0.1 ng/mL
same,"Mean plasma concentration, Portal Vein","COLON port, 1 hr",0.37 ± 0.15 ng/mL
same,"Mean plasma concentration, Systemic","COLON port, 1 hr",0.114 ng/mL
same,"Mean plasma concentration, Systemic","COLON port, 1.5 hr",BQL
same,"Mean plasma concentration, Portal Vein","COLON port, 2 hr",0.16 ± 0.05 ng/mL
same,"Mean plasma concentration, Systemic","COLON port, 2 hr",0.134 ng/mL
same,"Mean plasma concentration, Systemic","COLON port, 4 hr",BQL
same,"Mean plasma concentration, Systemic","COLON port, 6 hr",BQL
same,"Mean plasma concentration, Systemic","COLON port, 8 hr",BQL
same,"Mean plasma concentration, Systemic","COLON port, 12 hr",BQL
same,"Mean plasma concentration, Systemic","COLON port, 24 hr",0.11 ng/mL
same,clearance,IV 0.1 mg/kg,29.3 ± 3.17 mL/min/kg
same,half-life,"IV 0.1 mg/kg, systemic",0.88 ± 0.45 h
same,clearance,IV 0.2 mg/kg,28.8 ± 13 mL/min/kg
same,Bioavailability (high iv dose),Intracolon,0.1 ± 0.1%
same,Bioavailability (low iv dose),Intracolon,0.1 ± 0.1%
same,"Bioavailability, Average",Intracolon,0.1%
same,"Mean AUC0-inf of 9-NC, Portal Vein AUC",Intracolon 0.2 mg/kg,1.48 ± 0.29 ng·h/mL
same,"Mean AUC0-inf of 9-NC, Systemic AUC",Intracolon 0.2 mg/kg,0.07 ± 0.06 ng·h/mL
same,Bioavailability (high iv dose),Intraileum,1.6 ± 1.1%
same,Bioavailability (low iv dose),Intraileum,1.6 ± 1.2%
same,"Bioavailability, Average",Intraileum,1.6%
same,"Mean AUC0-inf of 9-NC, Portal Vein AUC",Intraileum 0.2 mg/kg,1.76 ± 0.95 ng·h/mL
same,"Mean AUC0-inf of 9-NC, Systemic AUC",Intraileum 0.2 mg/kg,1.65 ± 1.15 ng·h/mL
same,Bioavailability (high iv dose),Intrajejunal,3.0 ± 3.2%
same,Bioavailability (low iv dose),Intrajejunal,3.0 ± 3.2%
same,"Bioavailability, Average",Intrajejunal,3.2%
same,"Mean AUC0-inf of 9-NC, Portal Vein AUC",Intrajejunal 0.2 mg/kg,4.46 ± 4.00 ng·h/mL
same,"Mean AUC0-inf of 9-NC, Systemic AUC",Intrajejunal 0.2 mg/kg,1.03 ± 1.34 ng·h/mL
same,"Mean AUC0-inf of 9-NC, Portal Vein AUC",Intravenous - High (0.2 mg/kg),93.61 ± 17.02 ng·h/mL
same,"Mean AUC0-inf of 9-NC, Systemic AUC",Intravenous - High (0.2 mg/kg),118.33 ± 21.82 ng·h/mL
same,"Mean AUC0-inf of 9-NC, Portal Vein AUC",Intravenous - Low (0.1 mg/kg),45.05 ± 4.08 ng·h/mL
same,"Mean AUC0-inf of 9-NC, Systemic AUC",Intravenous - Low (0.1 mg/kg),57.25 ± 5.84 ng·h/mL
same,Bioavailability (high iv dose),Oral - capsule,4.1 ± 3.8%
same,Bioavailability (low iv dose),Oral - capsule,4.2 ± 4.0%
same,"Bioavailability, Average",Oral - capsule,4.1%
same,"Mean AUC0-inf of 9-NC, Portal Vein AUC",Oral - capsule 0.2 mg/kg,11.48 ± 1.50 ng·h/mL
same,"Mean AUC0-inf of 9-NC, Systemic AUC",Oral - capsule 0.2 mg/kg,4.75 ± 4.61 ng·h/mL
same,Bioavailability (high iv dose),Oral - suspension,0.4 ± 0.6%
same,Bioavailability (low iv dose),Oral - suspension,0.4 ± 0.6%
same,"Bioavailability, Average",Oral - suspension,0.4%
same,"Mean AUC0-inf of 9-NC, Portal Vein AUC",Oral - suspension 0.2 mg/kg,11.97 ± 9.88 ng·h/mL
same,"Mean AUC0-inf of 9-NC, Systemic AUC",Oral - suspension 0.2 mg/kg,0.48 ± 0.53 ng·h/mL
same,Bioavailability (high iv dose),Portal vein,5.2 ± 0.8%
same,Bioavailability (low iv dose),Portal vein,5.4 ± 1.4%
same,"Mean AUC0-inf of 9-NC, Systemic AUC",Portal vein infusion 0.2 mg/kg,6.24 ± 2.11 ng·h/mL
same,"Mean plasma concentration, Portal Vein","ileum port, 0.5 hr",0.56 ± 0.32 ng/mL
same,"Mean plasma concentration, Systemic","ileum port, 0.5 hr",0.12 ng/mL
same,"Mean plasma concentration, Portal Vein","ileum port, 1 hr",0.22 ± 0.03 ng/mL
same,"Mean plasma concentration, Systemic","ileum port, 1 hr",BQL
same,"Mean plasma concentration, Portal Vein","ileum port, 1.5 hr",0.34 ± 0.29 ng/mL
same,"Mean plasma concentration, Systemic","ileum port, 1.5 hr",0.13 ± 0.04 ng/mL
same,"Mean plasma concentration, Portal Vein","ileum port, 2 hr",0.13 ± 0.02 ng/mL
same,"Mean plasma concentration, Systemic","ileum port, 2 hr",0.10 ± 0.00 ng/mL
same,"Mean plasma concentration, Portal Vein","ileum port, 3 hr",0.12 ± 0.00 ng/mL
same,"Mean plasma concentration, Systemic","ileum port, 3 hr",0.17 ng/mL
same,"Mean plasma concentration, Portal Vein","ileum port, 4 hr",BQL
same,"Mean plasma concentration, Systemic","ileum port, 4 hr",0.13 ng/mL
same,"Mean plasma concentration, Portal Vein","ileum port, 6 hr",0.10 ng/mL
same,"Mean plasma concentration, Systemic","ileum port, 6 hr",BQL
same,"Mean plasma concentration, Systemic","ileum port, 8 hr",0.14 ng/mL
same,"Mean plasma concentration, Systemic","ileum port, 12 hr",0.14 ± 0.02 ng/mL
same,"Mean plasma concentration, Systemic","ileum port, 24 hr",0.13 ng/mL
same,"Mean plasma concentration, Portal Vein","jejunal port, 0.5 hr",0.41 ± 0.00 ng/mL
same,"Mean plasma concentration, Systemic","jejunal port, 0.5 hr",0.14 ng/mL
same,"Mean plasma concentration, Portal Vein","jejunal port, 1 hr",0.56 ± 0.47 ng/mL
same,"Mean plasma concentration, Systemic","jejunal port, 1 hr",0.15 ng/mL
same,"Mean plasma concentration, Portal Vein","jejunal port, 2 hr",0.37 ± 0.10 ng/mL
same,"Mean plasma concentration, Systemic","jejunal port, 2 hr",0.14 ng/mL
same,"Mean plasma concentration, Portal Vein","jejunal port, 3 hr",0.41 ng/mL
same,"Mean plasma concentration, Systemic","jejunal port, 3 hr",0.15 ng/mL
same,"Mean plasma concentration, Portal Vein","jejunal port, 4 hr",BLOQ
same,"Mean plasma concentration, Systemic","jejunal port, 4 hr",BQL
same,"Mean plasma concentration, Portal Vein","jejunal port, 6 hr",BLOQ
same,"Mean plasma concentration, Systemic","jejunal port, 6 hr",BQL
same,"Mean plasma concentration, Portal Vein","jejunal port, 8 hr",BLOQ
same,"Mean plasma concentration, Systemic","jejunal port, 8 hr",1.36 ± 1.73 ng/mL
same,"Mean plasma concentration, Systemic","jejunal port, 10 hr",BQL
same,"Mean plasma concentration, Portal Vein","jejunal port, 12 hr",0.15 ng/mL
same,"Mean plasma concentration, Systemic","jejunal port, 12 hr",BQL
same,"Mean plasma concentration, Portal Vein","jejunal port, 24 hr",BLOQ
same,"Mean plasma concentration, Systemic","jejunal port, 24 hr",BQL
same,AUC0-INF,"portal vein samples, 0.2 mg/kg 9-NC via COLON port",1.48 ± 0.29 ng·h/mL
same,AUC0-INF,"portal vein samples, 0.2 mg/kg 9-NC via ILEUM port",1.76 ± 0.95 ng·h/mL
same,AUC0-INF,"portal vein samples, 0.2 mg/kg 9-NC via JEJUNUM port",4.46 ± 4.00 ng·h/mL
same,AUCLast,[4],0.73 ± 0.63 ng·h/mL
same,CMAX,[4],0.79 ± 0.61 ng/mL
same,MRT,[4],2.21 ± 1.46 h
same,TMAX,[4],1.67 ± 0.29 h
same,AUCLast,[5],0.87 ± 0.11 ng·h/mL
same,CMAX,[5],0.65 ± 0.20 ng/mL
same,MRT,[5],8.65 ± 1.62 h
same,T1/2,[5],6.10 ± 7.50 h
same,TMAX,[5],0.34 ± 0.23 h
same,AUCLast,[6],0.85 ± 0.55 ng·h/mL
same,CMAX,[6],0.66 ± 0.24 ng/mL
same,MRT,[6],15.12 ± 1.62 h
same,T1/2,[6],7.59 ± 3.14 h
same,TMAX,[6],0.56 ± 0.42 h
same,AUC0-INF,"systemic samples, 0.2 mg/kg 9-NC via JEJUNUM port",6.66 ng·h/mL
same,AUCLast,[7],0.07 ± 0.06 ng·h/mL
same,CMAX,[7],0.08 ± 0.07 ng/mL
same,F,[7],0.1 ± 0.1%
same,TMAX,[7],0.72 ± 1.11 h
same,AUCLast,[8],1.65 ± 1.15 ng·h/mL
same,CMAX,[8],0.17 ± 0.01 ng/mL
same,Cl/F,[8],85.5 mL/min/kg
same,F,[8],1.6 ± 1.2%
same,TMAX,[8],2.25 ± 1.06 h
same,Vz,[8],1441 L/kg
same,AUCLast,[9],1.03 ± 1.34 ng·h/mL
same,CMAX,[9],0.96 ± 1.40 ng/mL
same,Cl/F,[9],500 mL/min/kg
same,F,[9],3.0 ± 3.2%
same,MRT,[9],54.11 h
same,TMAX,[9],4.00 ± 3.61 h
same,Vz,[9],1469 L/kg
